Test results: patent US6841519B1, “Isoxazoline derivatives and herbicides containing the same as the active ingredient” (Kumiai Chemical Industry Co., Ltd., priority 1999, dated 2005)

Key:
Assay type in all cases: in vivo
[1] = system: Echinochloa oryzicola Vasing. (Eo); assay: Test for herbicidal effect by paddy field soil treatment (Test Example 1); details: application amount (active ingredient) 100 g/10 a, examined at the 21st day from the treatment, index per Table 40
Procedure, shortened: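 Scored on a standard scale at day 21 in the greenhouse: herbicidal effect of wettable powder applied to flooded water (3 cm depth) at 100 g a.i./10 ares, one day after sowing Eo into puddled paddy soil.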

[2] = system: Echinochloa crus-galli (L.) Beauv. var. crusgall (Ec); assay: Test for herbicidal effect by upland field soil treatment (Test Example 2), Ec
Procedure, shortened: (§1)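 Pre-emergence soil treatment: wettable powder diluted in water and sprayed on soil just sown with Ec and Se seeds, delivering 100 g active ingredient per 10 ares in 100 liters per 10 ares. Herbicidal effect was rated against a fixed scale 21 days later, after greenhouse growth.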

[3] = system: Setaria viridis (L.) Beauv. (Se); assay: Test for herbicidal effect by upland field soil treatment (Test Example 2), Se
Procedure, shortened: as §1

[4] = system: Echinochloa crus-galli (L.) Beauv. var. crusgalli (Ec); assay: Test for herbicidal effect by upland foliage treatment (Test Example 3); details: 100 g/10 a active ingredient, examined at 14th day
Procedure, shortened: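 Scored 14 days post-spray against a graded standard: greenhouse-grown Ec, 2 weeks old in upland soil, received whole-foliage application of diluted wettable powder (100 g active ingredient per 10 ares, spray volume 100 L per 10 ares).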

[5] = 100 g/10 a active ingredient, examined at 21st day
[6] = application amount (active ingredient) 100 g/10 a, examined at the 21st day from the treatment, index per Table 40

Row | Structure (SMILES) | Herbicidal effect to Eo [1] | Herbicidal effect to Ec [2, 5] | Herbicidal effect to Se [3, 5] | Herbicidal effect to Ec [4] | Herbicidal effect to Ec [2, 6] | Herbicidal effect to Se [3, 6]
1 | CC1(C)CC(S(=O)(=O)Cc2c(F)cccc2I)=NO1 [Compound 1-548] | 5 (A herbicidal effect or phytotoxicity of 90% or more) | 5 (A herbicidal effect or phytotoxicity of 90% or more) | 5 (A herbicidal effect or phytotoxicity of 90% or more) | 5 (A herbicidal effect or phytotoxicity of 90% or more) | – | –
2 | Cc1cccc(OC(C)C)c1CS(=O)(=O)C1=NOC(C)(C)C1 [Compound 1-604] | 5 (A herbicidal effect or phytotoxicity of 90% or more) | 5 (A herbicidal effect or phytotoxicity of 90% or more) | 5 (A herbicidal effect or phytotoxicity of 90% or more) | 5 (A herbicidal effect or phytotoxicity of 90% or more) | – | –
3 | Cc1ccc(CS(=O)(=O)C2=NOC(C)(C)C2)cc1 [Compound 1-7] | 5 (A herbicidal effect or phytotoxicity of 90% or more) | – | – | 4 (A herbicidal effect or phytotoxicity of 70% to less than 90%) | 5 (A herbicidal effect or phytotoxicity of 90% or more) | 5 (A herbicidal effect or phytotoxicity of 90% or more)
4 | CC1(C)CC(S(=O)(=O)Cc2ccccc2OCC2CC2)=NO1 [Compound 1-608] | 5 (A herbicidal effect or phytotoxicity of 90% or more) | 5 (A herbicidal effect or phytotoxicity of 90% or more) | 5 (A herbicidal effect or phytotoxicity of 90% or more) | 5 (A herbicidal effect or phytotoxicity of 90% or more) | – | –
5 | COc1cccc(C)c1CS(=O)(=O)C1=NOC(C)(C)C1 [Compound 1-583] | 5 (A herbicidal effect or phytotoxicity of 90% or more) | 5 (A herbicidal effect or phytotoxicity of 90% or more) | 5 (A herbicidal effect or phytotoxicity of 90% or more) | 4 (A herbicidal effect or phytotoxicity of 70% to less than 90%) | – | –
6 | COc1ccccc1CS(=O)(=O)C1=NOC(C)(C)C1 [Compound 1-40] | 5 (A herbicidal effect or phytotoxicity of 90% or more) | – | – | 5 (A herbicidal effect or phytotoxicity of 90% or more) | 5 (A herbicidal effect or phytotoxicity of 90% or more) | 5 (A herbicidal effect or phytotoxicity of 90% or more)
7 | CCOC(=O)c1ccccc1CS(=O)(=O)C1=NOC(C)(C)C1 [Compound 1-593] | 5 (A herbicidal effect or phytotoxicity of 90% or more) | 5 (A herbicidal effect or phytotoxicity of 90% or more) | 4 (A herbicidal effect or phytotoxicity of 70% to less than 90%) | 4 (A herbicidal effect or phytotoxicity of 70% to less than 90%) | – | –
8 | C#CCOc1ccccc1CS(=O)(=O)C1=NOC(C)(C)C1 [Compound 1-559] | 5 (A herbicidal effect or phytotoxicity of 90% or more) | 5 (A herbicidal effect or phytotoxicity of 90% or more) | 5 (A herbicidal effect or phytotoxicity of 90% or more) | 5 (A herbicidal effect or phytotoxicity of 90% or more) | – | –
9 | CCC1(C)CC([S+]([O-])Cc2c(F)cccc2F)=NO1 (centres unmarked) [Compound 1-199, 5-ethyl-3-(2,6-difluorobenzylsulfinyl)-5-methyl-2-isoxazoline] | 5 (A herbicidal effect or phytotoxicity of 90% or more) | – | – | 4 (A herbicidal effect or phytotoxicity of 70% to less than 90%) | 5 (A herbicidal effect or phytotoxicity of 90% or more) | 5 (A herbicidal effect or phytotoxicity of 90% or more)
10 | CCCOc1cccc(C)c1CS(=O)(=O)C1=NOC(C)(C)C1 [Compound 1-603] | 5 (A herbicidal effect or phytotoxicity of 90% or more) | 5 (A herbicidal effect or phytotoxicity of 90% or more) | 5 (A herbicidal effect or phytotoxicity of 90% or more) | 4 (A herbicidal effect or phytotoxicity of 70% to less than 90%) | – | –
11 | C=CCOc1ccccc1CS(=O)(=O)C1=NOC(C)(C)C1 [Compound 1-589] | 5 (A herbicidal effect or phytotoxicity of 90% or more) | 5 (A herbicidal effect or phytotoxicity of 90% or more) | 5 (A herbicidal effect or phytotoxicity of 90% or more) | 4 (A herbicidal effect or phytotoxicity of 70% to less than 90%) | – | –
12 | CC1(C)CC(S(=O)(=O)Cc2cc(C(F)(F)F)ccc2C(F)(F)F)=NO1 [Compound 1-544] | 5 (A herbicidal effect or phytotoxicity of 90% or more) | 5 (A herbicidal effect or phytotoxicity of 90% or more) | 5 (A herbicidal effect or phytotoxicity of 90% or more) | 5 (A herbicidal effect or phytotoxicity of 90% or more) | – | –
13 | CC1(C)CC(S(=O)(=O)Cc2ccccc2OC(F)F)=NO1 [Compound 1-55] | 5 (A herbicidal effect or phytotoxicity of 90% or more) | – | – | 4 (A herbicidal effect or phytotoxicity of 70% to less than 90%) | 5 (A herbicidal effect or phytotoxicity of 90% or more) | 5 (A herbicidal effect or phytotoxicity of 90% or more)
14 | CCCCOc1ccccc1CS(=O)(=O)C1=NOC(C)(C)C1 [Compound 1-568] | 5 (A herbicidal effect or phytotoxicity of 90% or more) | 5 (A herbicidal effect or phytotoxicity of 90% or more) | 5 (A herbicidal effect or phytotoxicity of 90% or more) | 5 (A herbicidal effect or phytotoxicity of 90% or more) | – | –
15 | Cc1ccc(F)c(CS(=O)(=O)C2=NOC(C)(C)C2)c1F [Compound 1-550] | 5 (A herbicidal effect or phytotoxicity of 90% or more) | 5 (A herbicidal effect or phytotoxicity of 90% or more) | 5 (A herbicidal effect or phytotoxicity of 90% or more) | 5 (A herbicidal effect or phytotoxicity of 90% or more) | – | –
16 | C#CCOc1cccc(F)c1CS(=O)(=O)C1=NOC(C)(C)C1 [Compound 1-576] | 5 (A herbicidal effect or phytotoxicity of 90% or more) | 5 (A herbicidal effect or phytotoxicity of 90% or more) | 5 (A herbicidal effect or phytotoxicity of 90% or more) | 5 (A herbicidal effect or phytotoxicity of 90% or more) | – | –
17 | CCc1cccc(C)c1CS(=O)(=O)C1=NOC(C)(C)C1 [Compound 1-525] | 5 (A herbicidal effect or phytotoxicity of 90% or more) | 5 (A herbicidal effect or phytotoxicity of 90% or more) | 5 (A herbicidal effect or phytotoxicity of 90% or more) | 5 (A herbicidal effect or phytotoxicity of 90% or more) | – | –
18 | CC1(C)CC(S(=O)(=O)Cc2cccc(OC(F)F)c2)=NO1 [Compound 1-56] | 5 (A herbicidal effect or phytotoxicity of 90% or more) | – | – | 5 (A herbicidal effect or phytotoxicity of 90% or more) | 5 (A herbicidal effect or phytotoxicity of 90% or more) | 5 (A herbicidal effect or phytotoxicity of 90% or more)
19 | CC1(C)CC(S(=O)(=O)Cc2cc(F)cc(F)c2)=NO1 [Compound 1-506] | 5 (A herbicidal effect or phytotoxicity of 90% or more) | 5 (A herbicidal effect or phytotoxicity of 90% or more) | 5 (A herbicidal effect or phytotoxicity of 90% or more) | 4 (A herbicidal effect or phytotoxicity of 70% to less than 90%) | – | –
20 | CC1(C)CC(S(=O)(=O)Cc2cccc(F)c2F)=NO1 [Compound 1-504] | 5 (A herbicidal effect or phytotoxicity of 90% or more) | 5 (A herbicidal effect or phytotoxicity of 90% or more) | 5 (A herbicidal effect or phytotoxicity of 90% or more) | 5 (A herbicidal effect or phytotoxicity of 90% or more) | – | –
21 | CC1(C)CC(S(=O)(=O)Cc2ccccc2I)=NO1 [Compound 1-521] | 5 (A herbicidal effect or phytotoxicity of 90% or more) | 5 (A herbicidal effect or phytotoxicity of 90% or more) | 5 (A herbicidal effect or phytotoxicity of 90% or more) | 5 (A herbicidal effect or phytotoxicity of 90% or more) | – | –
22 | COc1ccc([N+](=O)[O-])cc1CS(=O)(=O)C1=NOC(C)(C)C1 [Compound 1-530] | 5 (A herbicidal effect or phytotoxicity of 90% or more) | 5 (A herbicidal effect or phytotoxicity of 90% or more) | 5 (A herbicidal effect or phytotoxicity of 90% or more) | 5 (A herbicidal effect or phytotoxicity of 90% or more) | – | –
23 | CCC1(C)CC(S(=O)(=O)Cc2ccccc2C(F)(F)F)=NO1 (centres unmarked) [Compound 1-336] | 5 (A herbicidal effect or phytotoxicity of 90% or more) | – | – | 5 (A herbicidal effect or phytotoxicity of 90% or more) | 5 (A herbicidal effect or phytotoxicity of 90% or more) | 5 (A herbicidal effect or phytotoxicity of 90% or more)
